BigSolDB 2.1

Nc1cccc(Cl)c1C(=O)O
solubility (mole fraction)
Conditions | 278.15 K | 283.15 K | 288.15 K | 293.15 K | 298.15 K | 303.15 K | 308.15 K | 313.15 K | 318.15 K | 323.15 K
in NMP | 0.0744 | 0.0797 | 0.0873 | 0.0958 | 0.106 | 0.119 | 0.135 | 0.155 | 0.178 | 0.204
in acetonitrile | 0.00746 | 0.00991 | 0.0129 | 0.0166 | 0.0208 | 0.0259 | 0.0313 | 0.0377 | 0.045 | 0.0541
in cyclohexane | – | 4.1e-05 | 6e-05 | 8.7e-05 | 0.000115 | 0.000155 | 0.000205 | 0.000269 | 0.000344 | 0.000445
in ethanol | 0.0284 | 0.0346 | 0.0408 | 0.049 | 0.0584 | 0.0702 | 0.0831 | 0.1 | 0.119 | 0.141
in ethyl acetate | 0.0257 | 0.0303 | 0.036 | 0.0423 | 0.051 | 0.0612 | 0.0731 | 0.0867 | 0.103 | 0.122
in ethylene glycol | 0.0133 | 0.0175 | 0.0225 | 0.0283 | 0.0349 | 0.0423 | 0.0505 | 0.0601 | 0.071 | 0.0848
in isobutanol | 0.0106 | 0.0145 | 0.0189 | 0.0244 | 0.0308 | 0.0385 | 0.047 | 0.057 | 0.0677 | 0.0809
in isopropanol | 0.0195 | 0.0231 | 0.0276 | 0.0332 | 0.0399 | 0.0479 | 0.0571 | 0.0676 | 0.0819 | 0.0982
in n-butanol | 0.0172 | 0.0208 | 0.0248 | 0.03 | 0.0365 | 0.0439 | 0.053 | 0.0642 | 0.0786 | 0.0958
in n-heptanol | 0.00987 | 0.0135 | 0.0177 | 0.0225 | 0.0276 | 0.0338 | 0.0414 | 0.0507 | 0.0625 | 0.0776
in n-octanol | 0.00855 | 0.0118 | 0.0154 | 0.0194 | 0.0241 | 0.0301 | 0.0376 | 0.0476 | 0.0606 | 0.0753
in n-propanol | 0.0203 | 0.0248 | 0.0299 | 0.0353 | 0.0416 | 0.0498 | 0.0592 | 0.0718 | 0.0859 | 0.103
in toluene | 0.00446 | 0.00515 | 0.00616 | 0.0075 | 0.00924 | 0.0112 | 0.0133 | 0.0156 | 0.0179 | 0.0207
in water | 0.000571 | 0.000674 | 0.000801 | 0.000965 | 0.00116 | 0.0014 | 0.00169 | 0.00203 | 0.00247 | 0.00297
